The source of these data is ChEMBL document CHEMBL4665648, “Potent and selective inhibitors of receptor-interacting protein kinase 1 that lack an aromatic back pocket group” (Bioorg Med Chem Lett, 2019).

The target in experiment [1] is Protein kinase C delta type (Homo sapiens) (UniProt Q05655). As to the kind of experiment: Inhibition of recombinant human GST-tagged full length PKCdelta expressed in insect expression system using Ser/Thr 07 as substrate at 10 uM incubated for 60 mins by Z'-lyte assay relative to control.
Experiment [2] addresses Mitogen-activated protein kinase kinase kinase 10 (Homo sapiens) (UniProt Q02779). As to the kind of experiment: Inhibition of tracer 236 binding to recombinant human GST-tagged full length MLK2 expressed in baculovirus expression system at 10 uM incubated for 60 mins by Lanthascreen assay relative to control. For orientation: In TR-FRET formats the signal depends on donor and acceptor labels being close together.

The target in experiment [3] is Hepatocyte growth factor receptor (Homo sapiens) (UniProt P08581). As to the kind of experiment: Inhibition of recombinant human His-tagged MET (956 to 1390 residues) expressed in baculovirus expression system using Tyr 06 as substrate at 10 uM incubated for 60 mins by Z'-lyte assay relative to control.
Sequence of Hepatocyte growth factor receptor (Homo sapiens) (P08581 whole entry, the tested form may be a part): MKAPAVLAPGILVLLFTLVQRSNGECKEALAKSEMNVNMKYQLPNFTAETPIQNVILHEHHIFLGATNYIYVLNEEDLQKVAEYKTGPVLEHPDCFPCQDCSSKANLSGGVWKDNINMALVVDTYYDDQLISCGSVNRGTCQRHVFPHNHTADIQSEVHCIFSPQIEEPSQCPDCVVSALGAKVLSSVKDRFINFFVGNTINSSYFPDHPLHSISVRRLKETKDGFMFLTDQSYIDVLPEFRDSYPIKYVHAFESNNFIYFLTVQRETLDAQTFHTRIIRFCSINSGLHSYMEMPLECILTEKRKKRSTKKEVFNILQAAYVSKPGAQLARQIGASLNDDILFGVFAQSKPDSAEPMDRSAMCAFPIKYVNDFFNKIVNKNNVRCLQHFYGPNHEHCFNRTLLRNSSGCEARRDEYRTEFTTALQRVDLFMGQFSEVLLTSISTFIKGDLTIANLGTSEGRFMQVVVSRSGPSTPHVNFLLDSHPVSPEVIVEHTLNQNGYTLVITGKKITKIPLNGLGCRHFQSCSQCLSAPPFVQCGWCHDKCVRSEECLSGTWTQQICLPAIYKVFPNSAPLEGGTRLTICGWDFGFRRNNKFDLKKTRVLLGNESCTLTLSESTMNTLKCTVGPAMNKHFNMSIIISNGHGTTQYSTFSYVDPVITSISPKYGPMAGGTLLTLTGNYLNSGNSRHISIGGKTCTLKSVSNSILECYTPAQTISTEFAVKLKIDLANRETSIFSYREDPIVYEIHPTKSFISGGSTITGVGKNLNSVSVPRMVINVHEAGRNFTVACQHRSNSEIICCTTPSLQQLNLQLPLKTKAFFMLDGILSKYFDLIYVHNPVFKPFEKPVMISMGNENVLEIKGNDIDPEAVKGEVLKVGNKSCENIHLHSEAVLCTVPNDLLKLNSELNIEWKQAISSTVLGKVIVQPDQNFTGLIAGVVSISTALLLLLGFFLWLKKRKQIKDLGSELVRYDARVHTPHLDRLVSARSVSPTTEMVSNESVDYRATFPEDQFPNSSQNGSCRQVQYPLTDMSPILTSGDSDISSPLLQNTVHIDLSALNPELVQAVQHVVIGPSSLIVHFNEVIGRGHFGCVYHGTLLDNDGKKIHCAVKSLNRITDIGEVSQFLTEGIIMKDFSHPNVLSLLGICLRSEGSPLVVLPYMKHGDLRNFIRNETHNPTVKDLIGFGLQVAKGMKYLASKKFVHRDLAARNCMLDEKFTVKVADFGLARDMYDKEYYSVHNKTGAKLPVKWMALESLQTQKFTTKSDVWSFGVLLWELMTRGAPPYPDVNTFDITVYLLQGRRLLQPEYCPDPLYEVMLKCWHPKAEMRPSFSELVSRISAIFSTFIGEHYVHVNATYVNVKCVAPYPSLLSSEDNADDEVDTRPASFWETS
Experiment [4] concerns the target MAP kinase-interacting serine/threonine-protein kinase 1 (Homo sapiens) (UniProt Q9BUB5). As to the kind of experiment: Inhibition of recombinant human GST-tagged full length MKNK1 expressed in insect expression system using Ser/Thr 07 as substrate at 10 uM incubated for 60 mins by Z'-lyte assay relative to control.
Experiment [5] deals with Leucine-rich repeat serine/threonine-protein kinase 2 (Homo sapiens) (UniProt Q5S007). As to the kind of experiment: Inhibition of recombinant human GST-tagged LRRK2 (970 to 2527 residues) expressed in baculovirus expression system using LRRKtide as substrate at 10 uM incubated for 60 mins by Adapta assay relative to control.
Experiment [6] has as its target Serine/threonine-protein kinase PLK2 (Homo sapiens) (UniProt Q9NYY3). As to the kind of experiment: Inhibition of recombinant human GST-tagged full length PLK2 expressed in baculovirus expression system using Ser/Thr 16 as substrate at 10 uM incubated for 60 mins by Z'-lyte assay relative to control.
For experiment [7], the species on record is Homo sapiens. The experiment is described as follows: Inhibition of recombinant human His-tagged PKA (1 to 351 residues) expressed in Escherichia coli expression system using Ser/Thr 01 as substrate at 10 uM incubated for 60 mins by Z'-lyte assay relative to control.
Experiment [8] addresses PAS domain-containing serine/threonine-protein kinase (Homo sapiens) (UniProt Q96RG2). As to the kind of experiment: Inhibition of recombinant human GST-tagged PASK (879 to 1323 residues) expressed in baculovirus expression system using Ser/Thr 07 as substrate at 10 uM incubated for 60 mins by Z'-lyte assay relative to control.
Experiment [9] concerns the target Protein-tyrosine kinase 6 (Homo sapiens) (UniProt Q13882). As to the kind of experiment: Inhibition of recombinant human His-tagged full length BRK expressed in baculovirus expression system using Tyr 01 as substrate at 10 uM incubated for 60 mins by Z'-Lyte assay relative to control.
The target in experiment [10] is Glycogen synthase kinase-3 beta (Homo sapiens) (UniProt P49841). The experiment is described as follows: Inhibition of recombinant human N-terminal GST-tagged full length GSK3beta expressed in baculovirus expression system using Ser/Thr 09 as substrate at 10 uM incubated for 60 mins by Z'-Lyte assay relative to control.
Experiment [11] addresses Serine/threonine-protein kinase N1 (Homo sapiens) (UniProt Q16512). The experiment is described as follows: Inhibition of recombinant human GST-tagged full length PRK1 expressed in baculovirus expression system using Ser/Thr 07 as substrate at 10 uM incubated for 60 mins by Z'-lyte assay relative to control.
Experiment [12] addresses MAP kinase-activated protein kinase 5 (Homo sapiens) (UniProt Q8IW41). The experiment is described as follows: Inhibition of recombinant human His-tagged full length PRAK expressed in baculovirus expression system using Ser/Thr 04 as substrate at 10 uM incubated for 60 mins by Z'-lyte assay relative to control.
The target of experiment [13] is Serine/threonine-protein kinase Nek4 (Homo sapiens) (UniProt P51957). As to the kind of experiment: Inhibition of recombinant human GST-tagged full length NEK4 expressed in baculovirus expression system using Ser/Thr 17 as substrate at 10 uM incubated for 60 mins by Z'-lyte assay relative to control.
Experiment [14] has as its target Ephrin type-A receptor 8 (Homo sapiens) (UniProt P29322). The experiment is described as follows: Inhibition of recombinant human GST-tagged EPHA8 (565 to 1005 residues) expressed in baculovirus expression system using Tyr 02 as substrate at 10 uM incubated for 60 mins by Z'-Lyte assay relative to control.
Experiment [15] deals with Serine/threonine-protein kinase Sgk3 (Homo sapiens) (UniProt Q96BR1). As to the kind of experiment: Inhibition of recombinant human GST-tagged full length SGK3 (87 to 496 residues) expressed in baculovirus expression system using Ser/Thr 06 as substrate at 10 uM incubated for 60 mins by Z'-Lyte assay relative to control.
Experiment [16] deals with Cytoplasmic tyrosine-protein kinase BMX (Homo sapiens) (UniProt P51813). As to the kind of experiment: Inhibition of recombinant human His-tagged full length BMX expressed in baculovirus expression system using Tyr 01 as substrate at 10 uM incubated for 60 mins by Z'-Lyte assay relative to control.
Sequence of Cytoplasmic tyrosine-protein kinase BMX (Homo sapiens) (P51813 whole entry): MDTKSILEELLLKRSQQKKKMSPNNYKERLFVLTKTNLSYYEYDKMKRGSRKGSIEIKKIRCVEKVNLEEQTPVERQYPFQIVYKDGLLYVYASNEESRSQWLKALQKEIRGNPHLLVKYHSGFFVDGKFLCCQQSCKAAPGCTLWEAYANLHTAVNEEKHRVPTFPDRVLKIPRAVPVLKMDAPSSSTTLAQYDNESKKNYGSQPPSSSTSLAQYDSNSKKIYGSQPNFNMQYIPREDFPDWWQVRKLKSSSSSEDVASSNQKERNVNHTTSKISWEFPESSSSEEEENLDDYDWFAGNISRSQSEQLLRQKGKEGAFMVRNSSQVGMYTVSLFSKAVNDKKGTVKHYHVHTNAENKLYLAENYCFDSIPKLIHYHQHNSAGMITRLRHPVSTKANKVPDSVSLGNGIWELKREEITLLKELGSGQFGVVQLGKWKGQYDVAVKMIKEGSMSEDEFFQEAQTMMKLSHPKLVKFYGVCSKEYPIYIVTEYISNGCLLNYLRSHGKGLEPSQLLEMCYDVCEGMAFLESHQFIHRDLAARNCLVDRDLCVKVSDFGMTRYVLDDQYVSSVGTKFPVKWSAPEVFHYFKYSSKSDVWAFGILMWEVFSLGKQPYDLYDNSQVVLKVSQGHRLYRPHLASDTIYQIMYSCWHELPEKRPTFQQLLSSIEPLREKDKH
The nature of experiment [17]: Inhibition of necroptosis in human HT-29 cells assessed as reduction in TNFalpha/BV6/zVAD-fmk-induced cell death incubated for 18 hrs by Cell Titer Glo luminescent cell viability assay. Type of experiment: functional, cell-based. To be noted: HT-29, 18 h.
Experiment [18] has as its target Megakaryocyte-associated tyrosine-protein kinase (Homo sapiens) (UniProt P42679). The experiment is described as follows: Inhibition of recombinant human His-tagged full length Hyl expressed in Escherichia coli expression system using Tyr 01 as substrate at 10 uM incubated for 60 mins by Z'-Lyte assay relative to control.
In experiment [19] the target is Phosphorylase b kinase gamma catalytic chain, liver/testis isoform (Homo sapiens) (UniProt P15735). The experiment is described as follows: Inhibition of recombinant human N-terminal GST-tagged full length PHKG2 expressed in baculovirus expression system using Ser/Thr 07 as substrate at 10 uM incubated for 60 mins by Z'-lyte assay relative to control.
Experiment [20] has as its target TGF-beta receptor type-1 (Homo sapiens) (UniProt P36897). The experiment is described as follows: Inhibition of tracer 178 binding to recombinant human N-terminal GST-tagged TGFBR1 (200 to 503 residues) expressed in baculovirus expression system at 10 uM incubated for 60 mins by Lanthascreen assay relative to control.
The target of experiment [21] is LIM domain kinase 1 (Homo sapiens) (UniProt P53667). As to the kind of experiment: Inhibition of tracer 236 binding to recombinant human His-tagged LIMK1 (285 to 638 residues) expressed in baculovirus expression system at 10 uM incubated for 60 mins by Lanthascreen assay relative to control.
For experiment [22], the target named is Dual specificity tyrosine-phosphorylation-regulated kinase 4 (Homo sapiens) (UniProt Q9NR20). As to the kind of experiment: Inhibition of recombinant human GST-tagged full length DYRK4 expressed in baculovirus expression system using Ser/Thr 9 as substrate at 10 uM incubated for 60 mins by Z'-Lyte assay relative to control.
In experiment [23] the target is Ribosomal protein S6 kinase alpha-2 (Homo sapiens) (UniProt Q15349). As to the kind of experiment: Inhibition of recombinant human GST-tagged full length RSK3 expressed in insect expression system using Ser/Thr 06 as substrate at 10 uM incubated for 60 mins by Z'-Lyte assay relative to control.
Experiment [24] deals with Fibroblast growth factor receptor 1 (Homo sapiens) (UniProt P11362). As to the kind of experiment: Inhibition of recombinant human His-tagged FGFR1 (308 to 731 residues) expressed in baculovirus expression system using Tyr 01 as substrate at 10 uM incubated for 60 mins by Z'-Lyte assay relative to control.

Sequence of Megakaryocyte-associated tyrosine-protein kinase (Homo sapiens) (P42679 whole entry, canonical isoform): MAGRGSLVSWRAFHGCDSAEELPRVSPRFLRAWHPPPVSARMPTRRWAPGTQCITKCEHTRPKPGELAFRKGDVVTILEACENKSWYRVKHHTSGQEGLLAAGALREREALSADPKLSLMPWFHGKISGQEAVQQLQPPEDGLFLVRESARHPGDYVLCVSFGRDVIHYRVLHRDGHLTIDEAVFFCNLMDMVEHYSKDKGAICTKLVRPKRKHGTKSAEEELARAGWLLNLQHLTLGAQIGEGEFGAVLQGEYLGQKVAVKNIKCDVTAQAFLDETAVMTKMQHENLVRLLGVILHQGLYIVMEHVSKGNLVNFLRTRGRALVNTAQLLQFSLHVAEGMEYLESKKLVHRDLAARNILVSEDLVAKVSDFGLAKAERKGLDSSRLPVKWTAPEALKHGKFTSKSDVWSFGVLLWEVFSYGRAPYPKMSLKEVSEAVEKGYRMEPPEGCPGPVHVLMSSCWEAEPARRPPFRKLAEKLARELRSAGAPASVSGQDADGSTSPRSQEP
Sequence of Ephrin type-A receptor 8 (Homo sapiens) (P29322 whole entry, the tested form may be a part): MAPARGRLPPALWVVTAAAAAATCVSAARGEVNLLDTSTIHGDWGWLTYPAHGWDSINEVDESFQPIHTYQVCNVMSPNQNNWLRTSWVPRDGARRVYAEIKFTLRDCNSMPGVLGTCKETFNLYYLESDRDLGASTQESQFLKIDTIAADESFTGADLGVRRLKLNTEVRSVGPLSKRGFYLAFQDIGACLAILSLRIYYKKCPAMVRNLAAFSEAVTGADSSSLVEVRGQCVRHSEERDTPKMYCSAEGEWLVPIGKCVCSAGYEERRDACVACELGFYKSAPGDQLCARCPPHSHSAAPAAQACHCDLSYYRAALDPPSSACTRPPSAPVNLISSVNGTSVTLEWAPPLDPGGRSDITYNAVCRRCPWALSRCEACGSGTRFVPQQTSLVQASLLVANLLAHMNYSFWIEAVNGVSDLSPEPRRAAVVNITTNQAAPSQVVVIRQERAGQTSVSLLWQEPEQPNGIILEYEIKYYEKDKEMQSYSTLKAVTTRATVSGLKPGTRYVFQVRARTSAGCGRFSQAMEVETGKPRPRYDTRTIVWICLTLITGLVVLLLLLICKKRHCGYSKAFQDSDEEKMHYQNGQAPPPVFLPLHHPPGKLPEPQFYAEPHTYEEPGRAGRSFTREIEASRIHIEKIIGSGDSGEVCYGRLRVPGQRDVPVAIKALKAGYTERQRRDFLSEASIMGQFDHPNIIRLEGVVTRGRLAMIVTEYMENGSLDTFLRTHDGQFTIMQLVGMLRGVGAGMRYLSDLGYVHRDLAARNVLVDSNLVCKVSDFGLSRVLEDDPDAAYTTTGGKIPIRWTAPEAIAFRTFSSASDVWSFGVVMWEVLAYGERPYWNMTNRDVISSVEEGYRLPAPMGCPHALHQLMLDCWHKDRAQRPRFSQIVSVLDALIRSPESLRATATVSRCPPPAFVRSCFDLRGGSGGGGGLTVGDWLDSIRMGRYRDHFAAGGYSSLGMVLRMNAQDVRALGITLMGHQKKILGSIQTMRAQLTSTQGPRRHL
Sequence of MAP kinase-interacting serine/threonine-protein kinase 1 (Homo sapiens) (Q9BUB5 whole entry, looked up, the tested form may be a part): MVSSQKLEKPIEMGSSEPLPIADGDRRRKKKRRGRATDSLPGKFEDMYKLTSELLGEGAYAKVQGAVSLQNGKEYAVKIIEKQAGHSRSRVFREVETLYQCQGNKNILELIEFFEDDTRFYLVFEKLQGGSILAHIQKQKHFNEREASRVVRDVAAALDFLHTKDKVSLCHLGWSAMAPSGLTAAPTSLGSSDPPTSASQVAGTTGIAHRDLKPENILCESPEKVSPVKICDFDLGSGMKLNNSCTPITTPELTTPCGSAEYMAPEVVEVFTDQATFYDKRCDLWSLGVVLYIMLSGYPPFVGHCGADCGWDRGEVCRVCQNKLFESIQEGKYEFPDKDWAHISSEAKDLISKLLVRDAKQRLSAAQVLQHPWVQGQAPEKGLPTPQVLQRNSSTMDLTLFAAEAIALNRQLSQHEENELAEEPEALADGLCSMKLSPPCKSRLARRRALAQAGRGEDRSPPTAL
Sequence of Mitogen-activated protein kinase kinase kinase 10 (Homo sapiens) (Q02779 whole entry, looked up): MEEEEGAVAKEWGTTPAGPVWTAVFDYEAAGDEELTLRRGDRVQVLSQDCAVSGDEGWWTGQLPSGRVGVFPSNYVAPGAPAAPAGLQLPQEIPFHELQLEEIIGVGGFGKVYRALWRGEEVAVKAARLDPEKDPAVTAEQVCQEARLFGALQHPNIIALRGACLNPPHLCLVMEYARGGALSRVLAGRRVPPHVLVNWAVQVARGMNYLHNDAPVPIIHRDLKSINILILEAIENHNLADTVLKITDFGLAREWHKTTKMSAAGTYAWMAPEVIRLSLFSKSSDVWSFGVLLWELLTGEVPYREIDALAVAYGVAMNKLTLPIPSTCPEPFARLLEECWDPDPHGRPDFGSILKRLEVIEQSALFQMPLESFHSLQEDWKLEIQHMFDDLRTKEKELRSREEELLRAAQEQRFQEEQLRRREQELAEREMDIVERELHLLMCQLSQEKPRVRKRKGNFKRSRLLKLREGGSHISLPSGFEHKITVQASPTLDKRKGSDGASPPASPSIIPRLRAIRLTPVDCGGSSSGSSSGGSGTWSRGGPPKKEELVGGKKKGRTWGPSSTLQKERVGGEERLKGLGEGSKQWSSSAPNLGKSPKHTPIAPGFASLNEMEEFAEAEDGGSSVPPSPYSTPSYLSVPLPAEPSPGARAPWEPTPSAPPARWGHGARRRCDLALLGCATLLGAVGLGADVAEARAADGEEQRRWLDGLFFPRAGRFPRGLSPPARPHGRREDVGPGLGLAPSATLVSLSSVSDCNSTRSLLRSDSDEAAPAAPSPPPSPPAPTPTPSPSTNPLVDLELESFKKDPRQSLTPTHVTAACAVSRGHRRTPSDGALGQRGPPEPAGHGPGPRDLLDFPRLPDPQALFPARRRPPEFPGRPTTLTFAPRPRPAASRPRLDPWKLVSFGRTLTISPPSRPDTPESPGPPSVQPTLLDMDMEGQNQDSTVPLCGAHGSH

Take `CN1C(=O)[C@@H](NC(=O)c2n[nH]c3ncc(C(F)(F)C(F)(F)F)cc23)COc2ccccc21`: the inhibition (usually the change of the read-out against control, counted positive when it falls) was 0.5% in experiment [1]; 13.5% in experiment [2]; 4.5% in experiment [3]; 7% in experiment [4]; -0.5% in [5]; -1% in experiment [6]. Further, the inhibition in experiment [7] was -1%; in experiment [8], 2%; in experiment [9], 0.5%; in experiment [10], 14.5%; in [11], 1%; in experiment [12], 5%. The inhibition in experiment [13] came to 3.5%; in experiment [14] it was 0%; in experiment [15], 0.5%; in experiment [16] it was 1.5%; in experiment [18] it was 3.5%; in experiment [19], 3.5%. Also, the inhibition in experiment [20] is -4.5%; in experiment [21], 5%; in [22] it was 4.5%; in [23], -4.5%; in experiment [24], 0%. Besides, in experiment [17], the EC50 – broadly, the midpoint of the concentration-response curve – was 54 nM.
